Values quoted from earlier work as cited in patent publication US11701425B2, “Valerian composition and related methods” (Société des Produits Nestlé S.A., priority 2016, dated 2023).

Conditions: reported value, no test by the applicant

pKa	Compound
about 5	CC1=C2[C@H](/C=C(\C)C(=O)O)CC[C@@H](C)[C@H]2CC1 [valerenic acid]
about 5	CCCC(CCC)C(=O)O [valproic acid]
